Measured values published in patent US20100029654A1, “CARDIOVASCULAR COMPOSITIONS AND USE OF THE SAME FOR THE TREATMENT OF ALZHEIMER'S DISEASE” (MOUNT SINAI SCHOOL OF MEDICINE, priority 2006, published 2010).
Structures can show the parent of a compound that is named as a salt. Where two headings read alike, the source gives them in different places.

Experiments:
[1] = system: primary cortico-hippocampal neuron cultures; assay: MTT in primary screening
Aβ1-42 = Aβ1-42 content in conditioned medium of primary cortico-hippocampal neuron cultures from Tg2576 mice (ELISA; primary and secondary dose-response screening); assay type: cell-based, mouse; conditions: for activity at 100 µM: Mus musculus, Neuron, 24 h, read-out: Ab1-42 (% of ctl); for activity at 100 µM / Ab1-42 (% of ctl): drug 100 μM; for reducing Aβ1-42: <85% of ctl
In short: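 This screen tested cardiovascular drugs for Aβ-lowering in Tg2576 embryonic cortico-hippocampal neuron cultures plated at 1.0×10^5 cells per well in poly-D-lysine-coated 96-well plates with Neurobasal/B27 medium. Drugs at 100 μM were added directly to the medium in duplicate, with 1% DMSO alone as the control. Conditioned medium was then collected, and its Aβ1-42 level was quantified with BioSource ELISA kits.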

[2] = system: primary cortico-hippocampal neuron cultures; assay: lactate dehydrogenase (LDH) activity assay in parallel neuron cultures
Description: For in vitro treatments drugs available from “The Spectrum Collection” in stocks of 10 mM in DMSO were applied directly to cultures to the desired concentrations (final 1% DMSO); control primary neuron cultures from Tg2576 embryos were treated with vehicle resulting in a final 1% DMSO.
Cell viability was assessed using a commercial available LDH assay kit according to the manufacture's instruction (Promega).

Aβ1-40 = Aβ1-40 content in conditioned medium of primary cortico-hippocampal neuron cultures from Tg2576 mice (ELISA; primary and secondary dose-response screening); assay type: cell-based, mouse; conditions: for activity at 100 µM: Mus musculus, Neuron, 24 h, read-out: Ab1-40 (% of ctl); for activity at 100 µM / Ab1-40 (% of ctl): drug 100 μM; for reduced Aβ1-40: <85% of ctl
In short: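 Primary cortico-hippocampal neurons from embryonic Tg2576 mice were plated at 1.0×10^5 cells per well on poly-D-lysine-coated 96-well plates in Neurobasal with 2% B27, 0.5 mM L-glutamine and 1% penicillin-streptomycin. Cultures received drug in 1% DMSO, and Aβ1-40 in the conditioned medium was measured by BioSource ELISA 24 hours after treatment, relative to vehicle controls.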

[3] = Primary Screening, table sorted by Aβ1-40
[4] = primary screening, table sorted by Aβ1-42
[5] = primary screening, Tg2576 neuron cultures, table sorted by Aβ1-42

Row | SMILES | MTT (% of ctl) [1, 3] | MTT (% of ctl) [1, 4] | activity at 100 µM (Aβ1-42; [3]) [%] | activity at 100 µM (Aβ1-42; [5]) [%] | LDH (% of ctl) [2, 3] | LDH (% of ctl) [2, 4] | activity at 100 µM (Aβ1-40; [3]) [%] | activity at 100 µM (Aβ1-40; [5]) [%] | reducing Aβ1-42 (Aβ1-42; primary screening) | reduced Aβ1-40 (Aβ1-40; primary screening) | Ab1-42 (% of ctl) (Aβ1-42; [3]) | Ab1-42 (% of ctl) (Aβ1-42; [5]) | Ab1-40 (% of ctl) (Aβ1-40; [3]) | Ab1-40 (% of ctl) (Aβ1-40; [5])
1 | CC[C@H]1CN2CC[C@H]1C[C@@H]2[C@@H](O)c1ccnc2ccc(OC)cc12 [Hydroquinidine] | 103.6 % of ctl | 103.6 % of ctl | 121 | 121 | 102.2 % of ctl | 102.2 % of ctl | 96.5 | 96.5 |  |  |  |  |  | 
2 | CC1Cc2ccccc2N1NC(=O)c1ccc(Cl)c(S(N)(=O)=O)c1 (stereo not drawn) [Indapamide] | 104.2 % of ctl | 104.2 % of ctl | 91.3 | 91.3 | 85.3 % of ctl | 85.3 % of ctl | 107 | 107 |  |  |  |  |  | 
3 | CCCCC1=NC2(CCCC2)C(=O)N1Cc1ccc(-c2ccccc2-c2nnn[nH]2)cc1 [Irbesartan] | 98.9 % of ctl | 98.9 % of ctl | 82.3 | 82.3 | 112.5 % of ctl | 112.5 % of ctl | 89.7 | 89.7 | useful in reducing Aβ1-42 |  |  |  |  | 
4 | O=[N+]([O-])O[C@H]1CO[C@H]2[C@@H]1OC[C@H]2O[N+](=O)[O-] [Isosorbide Dinitrate] | 100.8 % of ctl | 100.8 % of ctl |  |  | 124.6 % of ctl | 124.6 % of ctl |  |  | useful in reducing Aβ1-42 | reduced Aβ1-40 |  |  |  | 
5 | CC(=O)O[C@H]1C[C@H](O[C@H]2[C@@H](O)C[C@H](O[C@H]3[C@@H](O)C[C@H](O[C@H]4CC[C@@]5(C)[C@H](CC[C@@H]6[C@@H]5C[C@@H](O)[C@]5(C)[C@@H](C7=CC(=O)OC7)CC[C@]65O)C4)O[C@@H]3C)O[C@@H]2C)O[C@H](C)[C@H]1O[C@@H]1O[C@H](CO)[C@@H](O)[C@H](O)[C@H]1O [Lanatoside C] | 66.5 % of ctl | 66.5 % of ctl |  |  | 166.0 % of ctl | 166.0 % of ctl |  |  |  | reduced Aβ1-40 | 100.3 % of ctl | 100.3 % of ctl | 45.8 % of ctl | 45.8 % of ctl
6 | CNC1(C)C2CCC(C2)C1(C)C (stereo not drawn) [Mecamylamine Hydrochloride] | 114.9 % of ctl | 114.9 % of ctl | 130 | 130 | 97.0 % of ctl | 97.0 % of ctl | 124 | 124 |  |  |  |  |  | 
7 | CN1C[C@H](CNC(=O)OCc2ccccc2)C[C@@H]2c3cccc4c3c(cn4C)C[C@H]21 [Metergoline] | 76.5 % of ctl | 76.5 % of ctl | 2.3 | 2.3 | 159.3 % of ctl | 159.3 % of ctl | -3.1 | -3.1 | useful in reducing Aβ1-42 | reduced Aβ1-40 |  |  |  | 
8 | Cc1ccccc1N1C(=O)c2cc(S(N)(=O)=O)c(Cl)cc2NC1C (stereo not drawn) [Metolazone] | 69.7 % of ctl | 69.7 % of ctl | 98 | 98 | 103.7 % of ctl | 103.7 % of ctl | 104 | 104 |  |  |  |  |  | 
9 | COCCc1ccc(OCC(O)CNC(C)C)cc1 (stereo not drawn) [Metoprolol Tartrate] | 94.7 % of ctl | 94.7 % of ctl | 104 | 104 | 107.5 % of ctl | 107.5 % of ctl | 91.4 | 91.4 |  |  |  |  |  | 
10 | Cc1cccc(C)c1OCC(C)N (stereo not drawn) [Mexiletine Hydrochloride] | 95.6 % of ctl | 95.6 % of ctl | 115 | 115 | 103.4 % of ctl | 103.4 % of ctl | 91.3 | 91.3 |  |  |  |  |  | 
11 | COc1ccc(OC)c(C(O)CNC(=O)CN)c1 (stereo not drawn) [Midodrine Hydrochloride] | 87.8 % of ctl | 87.8 % of ctl | 76.7 | 76.7 | 105.6 % of ctl | 105.6 % of ctl | 86 | 86 | useful in reducing Aβ1-42 |  |  |  |  | 
12 | Nc1cc(N2CCCCC2)nc(N)[n+]1[O-] [Minoxidil] | 98.5 % of ctl | 98.5 % of ctl | 98.9 | 98.9 | 117.1 % of ctl | 117.1 % of ctl | 94.2 | 94.2 |  |  |  |  |  | 
13 | CCOC(=O)[N-]c1cn(N2CCOCC2)n[o+]1 [Molsidomine] | 15.0 % of ctl | 15.0 % of ctl | 121 | 121 | 1127.4 % of ctl | 1127.4 % of ctl | 118 | 118 |  |  |  |  |  | 
14 | NC(N)=NC(=O)c1nc(Cl)c(N2CCCCCC2)nc1N [N,N-Hexamethyleneamiloride] | 96.1 % of ctl | 96.1 % of ctl |  |  | 117.3 % of ctl | 117.3 % of ctl |  |  | useful in reducing Aβ1-42 | reduced Aβ1-40 | 26.2 % of ctl | 26.2 % of ctl | 15.4 % of ctl | 15.4 % of ctl
15 | CC(C)(C)NCC(O)COc1cccc2c1CC(O)C(O)C2 (stereo not drawn) [Nadolol] | 102.8 % of ctl | 102.8 % of ctl | 113 | 113 | 106.5 % of ctl | 106.5 % of ctl | 94.2 | 94.2 |  |  |  |  |  | 
16 | CCN(CC)CCOC(=O)C(Cc1cccc2ccccc12)CC1CCCO1 (stereo not drawn) [Nafronyl Oxalate] | 103.2 % of ctl | 103.2 % of ctl | 145 | 145 | 96.6 % of ctl | 96.6 % of ctl | 134 | 134 |  |  |  |  |  | 
17 | O=C(O)c1cccnc1 [Niacin] | 61.0 % of ctl | 61.0 % of ctl | 95 | 95 | 134.5 % of ctl | 134.5 % of ctl | 101 | 101 |  |  |  |  |  | 
